Reference: PMC8621208, “Antiseptic 9-Meric Peptide with Potency against Carbapenem-Resistant Acinetobacter baumannii Infection” (International Journal of Molecular Sciences, 2021)
In brackets after ≈: the same amount, converted by molar mass. Where two headings read alike, the source gives them in different places. Where a SMILES comes first, the peptide text is derived from it. [ ]: non-standard residue; d: D form.

How the values were obtained:
CRAB C0 = format: cell-based, carbapenem-resistant A. baumannii; conditions: peptide pre-incubated 6 h at 37 °C
Procedure: (§1) All the peptides at their MICs were pre-incubated with proteolytic enzymes such as trypsin and α-chymotrypsin (10,000:1; peptide: enzyme ratio) for 6 h at 37 °C. Then, 100 μL of peptide-protease cocktail was added to the 100 µL bacterial suspension (E. coli, A. baumannii and CRAB C0, 2 × 10^5 CFU/mL) and further incubated for 16 h at 37 °C. Bacterial suspension without peptide and protease served as negative control. The analysis was repeated at three times using independent experiments, and the degree of bacterial growth was measured at 600 nm using a microplate reader.

CRAB C0 outer membrane = assay: Outer membrane permeability, NPN uptake; format: cell-based, carbapenem-resistant A. baumannii
Procedure: The effect of peptides on the disturbance of CRAB C0 outer membrane was analyzed using 1-N-phenylnaphthylamine (NPN, Sigma-Aldrich, St. Louis, MO, USA) uptake assay, as previously described. Briefly, CRAB C0 cell suspensions were mixed with NPN (1 mM) and the background fluorescence was recorded for subtraction (excitation λ = 350 nm, emission λ = 420 nm) using RF-6000PC fluorescent spectrophotometer (Shimadzu Scientific Instruments, Kyoto, Japan). Changes in the NPN fluorescence were recorded after addition of different concentrations of peptides and values are expressed as—fluorescence intensity (A.U.).

CRAB C8 = assay: microbe, parasite or virus in culture; conditions: CRAB C8
Source text: (§2) Escherichia coli KCTC 1682 was obtained from the Korean Collection for Type Cultures (KCTC) (Jeongeup-si, Korea), Acinetobacter baumannii KCCM 40203, Pseudomonas aeruginosa KCCM 11328 from the Korea Culture Center of Microorganisms (KCCM) (Seoul, Korea). Klebsiella pneumoniae NCCP 16054 were obtained from the National Culture Collection for Pathogens (NCCP) (Osong, Korea). Additionally, two carbapenem-resistant E. coli (CREC E1 and E2), 11 carbapenem-resistant A. baumannii (CRAB C0–C10) and two carbapenem-resistant K. pneumoniae (CRKP K1 and K2) were isolated from the patients, who presented symptoms and signs of infection at Korea University Anam Hospital (Seoul, Korea) (IRB registration no. 2020AN0157, 4 March 2021). CRAB C0–C10 have the OXA-23 gene with carbapenem-resistance.
(§3) The minimum inhibitory concentrations (MIC) were determined using broth dilution method. Briefly, all the mentioned bacterial strains were grown overnight at 37 °C by Muller–Hinton (MH) media. […] After 16 h incubation, the bacterial growth was read at 600 nm using a SpectraMAX microplate reader (Molecular Devices, San Jose, CA, USA).

CRAB C1 = assay: microbe, parasite or virus in culture; conditions: CRAB C1
Source text: as §2, §3

K. pneumoniae = assay: microbe, parasite or virus in culture; conditions: K. pneumoniae; 16 h, MH media
Source text: as §2, §3

P. aeruginosa = assay: MIC, broth dilution; format: cell-based, Pseudomonas aeruginosa KCCM 11328; conditions: 16 h, MH media, read-out: Minimal Inhibitory Concentration (MIC)
Source text: as §2, §3

[1] = system: sheep red blood cells (sRBC); assay: Hemolytic assay; format: cell-based; conditions: 100 μM
Procedure: The peptide-induced toxicity was determined by hemolytic against Sheep red blood cells (sRBC). Briefly, Fresh sRBC were washed at least three times with phosphate-buffered saline (PBS) and the debris were removed by centrifugation (1000× g for 5 min, 4 °C). All the peptides including melittin control (0.2–100 μM) and positive control (1% (v/v) triton X-100) were incubated with 4% (v/v) sRBC for 1 h at 37 °C followed by centrifugation at 1000× g for 5 min. The supernatant was measured at 405 nm using a microplate reader.

E. coli = format: cell-based, Escherichia coli; conditions: peptide pre-incubated 6 h at 37 °C
Procedure: as §1

A. baumannii = format: cell-based, Acinetobacter baumannii; conditions: peptide pre-incubated 6 h at 37 °C
Procedure: as §1

[2] = system: RAW 264.7 murine macrophage cells; assay: Cytotoxicity, WST-8 assay; format: cell-based, mouse; conditions: 100 μM, 24 h
Procedure: Figure 6 In vitro cytotoxicity of Pro9-3 and their analogues. (A) Dose-response curve represent the hemolytic activity of peptides against sheep red blood cell (sRBC). Concentration-dependent (0–100 μM) toxic effects induced by peptides on (B) RAW 264.7 murine macrophage cells and (C) human kidney (HK)-2 cells for 24 h. Melittin was used as a control. Statistical analysis was performed using two-way analysis of variance (ANOVA) with Dunnett’s comparison test. Values are expressed as mean ± SEM of three independent experiments. * p < 0.05, ** p < 0.01, *** p < 0.001, and ns, non-significant compared with the control.
RAW 264.7 mouse macrophage cells and Human kidney (HK)-2 cells were obtained from Korean cell line bank (Seoul, Korea) and the cells were maintained in DMEM culture media (Thermo Fischer Scientific Inc., Waltham, MA, USA) supplemented with 10% fetal bovine serum, 1% penicillin/streptomycin at 37 °C in a humidified 5% CO2 incubator. The cytotoxicity of the peptides was analyzed using WST-8 cell proliferation assay (Biomax Co, Ltd., Seoul, Korea), and the experiment was performed according to the kit protocol. Briefly, cells (1 × 10^4) were seeded in 96-well plate and the peptides treatment (0–100 μM) were initiated at 80% confluency and then for 24 h. After incubation, WST-8 reagent was added and the change in absorbance was read at 450 nm against reagent blank, and values are expressed as percent cell survival.

## CC[C@@H](C)[C@@H](NC(=O)[C@@H](Cc1c[nH]c2ccccc12)NC(=O)[C@@H](CCCNC(=N)N)NC(=O)[C@H](N)CCCNC(=N)N)C(=O)N[C@H](C)C(=O)N[C@H](CC(C)C)C(=O)N[C@H](Cc1c[nH]c2ccccc12)C(=O)N[C@H](CC(C)C)C(=O)N[C@H](CCCNC(=N)N)C(N)=O [R-Pro9-3D, rrwialwlr-NH2] (H-[dR][dR][dW][dI][dA][dL][dW][dL][dR]-NH2)
CRAB C0; CRAB C0 + Trypsin
  Minimal Inhibitory Concentration (MIC): 4 µM
CRAB C0; CRAB C0 + α-Chymotrypsin
  Minimal Inhibitory Concentration (MIC): 4 µM
CRAB C0 outer membrane
  NPN uptake (outer membrane permeabilization): greater NPN uptake than their L-form peptides
CRAB C8
  Minimal Inhibitory Concentration (MIC): 4 µM
CRAB C1
  Minimal Inhibitory Concentration (MIC): 8 µM
K. pneumoniae
  Minimal Inhibitory Concentration (MIC): 8 µM
P. aeruginosa
  MIC: 8 µM (≈ 10.1 µg/mL)
[1]
  Hemolytic activity: 1.2%
E. coli; E. coli + Trypsin
  Minimal Inhibitory Concentration (MIC): 8 µM
E. coli; E. coli + α-Chymotrypsin
  Minimal Inhibitory Concentration (MIC): 8 µM
A. baumannii; A. baumannii + Trypsin
  Minimal Inhibitory Concentration (MIC): 4 µM
A. baumannii; A. baumannii + α-Chymotrypsin
  Minimal Inhibitory Concentration (MIC): 4 µM
[2]
  Toxicity in RAW 264.7 cells: 20.3%
